Source: the NIST ThermoML archive (doi:10.1021/je900878j)
± gives the expanded uncertainty stated by the source.

Conditions: 101.33 kPa, Liquid; for electrical conductivity: Symmetrical Wheatstone bridge; for viscosity: Capillary tube (Ostwald / Ubbelohde) method; for mass density: Vibrating tube method

CCn1cc[n+](C)c1.N#CN=C=[N-] [1-ethyl-3-methylimidazolium dicyanamide]
Conditions	electrical conductivity [S/m]	mass density [kg/m3]	viscosity [mPa·s]
238.15 K	0.1546 ± 0.0012	–	–
248.15 K	0.3404 ± 0.0027	–	–
258.15 K	0.6305 ± 0.005	–	75.38 ± 2.1
263.15 K	–	–	56.81 ± 1.5
268.15 K	1.035 ± 0.0083	–	44.24 ± 1.2
273.15 K	–	–	35.22 ± 0.96
278.15 K	1.556 ± 0.012	–	28.59 ± 0.78
288.15 K	2.189 ± 0.018	–	19.81 ± 0.54
293.15 K	–	–	16.85 ± 0.46
298.15 K	2.928 ± 0.023	1100.8 ± 2.3	14.5 ± 0.39
303.15 K	3.342 ± 0.027	1097.5 ± 2.3	12.62 ± 0.34
313.15 K	4.226 ± 0.034	1091 ± 2.3	9.8 ± 0.27
323.15 K	5.194 ± 0.042	1084.4 ± 2.2	7.83 ± 0.21
333.15 K	6.236 ± 0.05	1077.9 ± 2.2	6.43 ± 0.18
343.15 K	7.343 ± 0.059	–	5.36 ± 0.15
353.15 K	8.509 ± 0.068	–	4.55 ± 0.12

CCCCn1cc[n+](C)c1.F[B-](F)(F)F [1-butyl-3-methylimidazolium tetrafluoroborate]
Conditions	electrical conductivity [S/m]	mass density [kg/m3]	viscosity [mPa·s]
258.15 K	0.02318 ± 0.00019	–	–
268.15 K	0.05477 ± 0.00044	–	–
278.15 K	0.1137 ± 0.00091	–	–
288.15 K	0.2116 ± 0.0017	–	–
293.15 K	–	–	141.1 ± 4.4
298.15 K	0.3587 ± 0.0029	1202.4 ± 2.8	107.6 ± 3.2
303.15 K	0.4543 ± 0.0036	1198.6 ± 2.8	83.3 ± 2.3
313.15 K	0.6913 ± 0.0055	1191.6 ± 2.7	52.81 ± 1.4
323.15 K	0.9942 ± 0.008	1184.5 ± 2.7	35.53 ± 0.97
333.15 K	1.364 ± 0.011	1177.3 ± 2.7	25.11 ± 0.68
343.15 K	1.8 ± 0.014	–	18.48 ± 0.5
353.15 K	2.301 ± 0.018	–	14.06 ± 0.38

CCn1cc[n+](C)c1.O=S(=O)([N-]S(=O)(=O)C(F)(F)F)C(F)(F)F
Conditions	electrical conductivity [S/m]	mass density [kg/m3]	viscosity [mPa·s]
248.15 K	0.0705 ± 0.00056	–	–
258.15 K	0.1475 ± 0.0012	–	–
263.15 K	–	–	175.1 ± 5.8
268.15 K	0.2671 ± 0.0021	–	128.8 ± 4
278.15 K	0.4347 ± 0.0035	–	75.13 ± 2.1
288.15 K	0.6526 ± 0.0052	–	47.78 ± 1.3
293.15 K	–	–	39.07 ± 1.1
298.15 K	0.921 ± 0.0074	1519.3 ± 4.5	32.46 ± 0.88
303.15 K	1.074 ± 0.0086	1514.2 ± 4.5	27.3 ± 0.74
313.15 K	1.414 ± 0.011	1504.3 ± 4.4	19.97 ± 0.54
323.15 K	1.799 ± 0.014	1494.3 ± 4.4	15.17 ± 0.41
333.15 K	2.224 ± 0.018	1484.4 ± 4.3	11.87 ± 0.32
343.15 K	2.689 ± 0.021	–	9.54 ± 0.26
353.15 K	3.189 ± 0.025	–	7.83 ± 0.21

CCn1cc[n+](C)c1.F[B-](F)(F)F [1-ethyl-3-methylimidazolium tetrafluoroborate]
Conditions	electrical conductivity [S/m]	mass density [kg/m3]	viscosity [mPa·s]
238.15 K	0.04188 ± 0.00034	–	–
248.15 K	0.1088 ± 0.00087	–	–
258.15 K	0.2333 ± 0.0019	–	–
268.15 K	0.4316 ± 0.0034	–	–
269.15 K	–	–	145 ± 4.6
273.15 K	–	–	114.1 ± 3.4
278.15 K	0.7168 ± 0.0057	–	86.88 ± 2.5
288.15 K	1.096 ± 0.0088	–	54.1 ± 1.5
293.15 K	–	–	44.19 ± 1.2
298.15 K	1.573 ± 0.013	1288.8 ± 3.2	36.17 ± 0.98
303.15 K	1.847 ± 0.015	1285 ± 3.2	30.13 ± 0.82
313.15 K	2.466 ± 0.02	1277.5 ± 3.2	21.77 ± 0.59
323.15 K	3.176 ± 0.025	1269.9 ± 3.1	16.35 ± 0.45
333.15 K	3.97 ± 0.032	1262.4 ± 3.1	12.7 ± 0.35
343.15 K	4.843 ± 0.039	–	10.12 ± 0.28
353.15 K	5.794 ± 0.046	–	8.23 ± 0.22
